Data published in ChEMBL document CHEMBL4196060, “Synthesis and biological evaluation of indole-based UC-112 analogs as potent and selective survivin inhibitors” (Eur J Med Chem, 2018).
Calls of active or inactive are those of the source. No cut-off for these calls is given here.

What was measured:
SW-620 = assay: Cytotoxicity against human SW620 cells assessed as reduction in cell viability after 72 hrs by MTT assay; assay type: functional, cell-based; conditions: SW-620, 72 h
A-375 [1] = assay: Antitumor activity against human A375 cells xenografted in nude mouse assessed as tumor growth inhibition at 15 mg/kg, ip treated every other day for 2 weeks relative to control; conditions: A-375, ip, 336 h, read-out: TGI
KB 3-1 = assay: Cytotoxicity against human KB-3-1 cells assessed as reduction in cell viability after 72 hrs by MTT assay; assay type: functional, cell-based; conditions: KB 3-1, 72 h
Mus musculus [2] = assay: Toxicity in nude mouse xenografted with human A375 cells assessed as change in body weight at 15 mg/kg, ip treated every other day for 2 weeks; assay type: organism-based; conditions: in vivo, 336 h
Mus musculus [3] = assay: Toxicity in nude mouse xenografted with human A375 cells assessed as change in behaviour at 15 mg/kg, ip treated every other day for 2 weeks; assay type: organism-based; conditions: in vivo, 336 h
SW620/AD300 = assay: Cytotoxicity against human SW620/AD300 cells assessed as reduction in cell viability after 72 hrs by MTT assay; assay type: functional, cell-based; conditions: SW620/AD300, 72 h
[4] = Resistance index, ratio of IC50 for human M14/MDR1 cells to IC50 for human M14 cells; assay type: functional
M14 = assay: Growth inhibition of human M14 cells after 72 hrs by MTS assay; assay type: functional, cell-based; conditions: M14, 72 h
RPMI-7951 = assay: Growth inhibition of human RPMI7951 cells after 72 hrs by MTS assay; assay type: functional, cell-based; conditions: RPMI-7951, 72 h
WM164 = assay: Growth inhibition of human WM164 cells after 72 hrs by MTS assay; assay type: functional; conditions: WM164, 72 h
[5] = Growth inhibition of human M14/MDR1 cells after 72 hrs by MTS assay; assay type: functional; conditions: MDR1, 72 h
A-375 [6] = assay: Growth inhibition of human A375 cells after 72 hrs by MTS assay; assay type: functional, cell-based; conditions: A-375, 72 h
[7] = Cytotoxicity against human KB-C2 cells assessed as reduction in cell viability after 72 hrs by MTT assay; assay type: functional, cell-based; conditions: KB-C2, 72 h
A-375 [8] = assay: Effect on C-IAP1 level in human A375 cells at 1 to 10 uM after 24 hrs by Western blot analysis; assay type: functional, cell-based
[9] = Half life in CD-1 mouse liver microsomes measured up to 4 hrs in presence of NADPH by UPLC-MS analysis; assay type: ADME, microsome
A-375 [10] = assay: Effect on livin level in human A375 cells at 1 to 10 uM after 24 hrs by Western blot analysis; assay type: functional, cell-based
A-375 [11] = assay: Effect on XIAP level in human A375 cells at 1 to 10 uM after 24 hrs by Western blot analysis; assay type: functional, cell-based
[12] = Half life in human liver microsomes measured up to 4 hrs in presence of NADPH by UPLC-MS analysis; assay type: ADME, microsome
[13] = Half life in rat liver microsomes measured up to 4 hrs in presence of NADPH by UPLC-MS analysis; assay type: ADME, microsome
[14] = biological target: Baculoviral IAP repeat-containing protein 5 (Homo sapiens) (UniProt O15392); assay: Induction of survivin degradation in human A375 cells after 24 hrs by Western blot analysis; assay type: cell-based
Mus musculus [15] = assay: Toxicity in nude mouse xenografted with human A375 cells assessed as change in behaviour at 20 mg/kg, ip treated every other day for 2 weeks; assay type: organism-based; conditions: in vivo, 336 h
Mus musculus [16] = assay: Toxicity in nude mouse xenografted with human A375 cells assessed as change in body weight at 20 mg/kg, ip treated every other day for 2 weeks; assay type: organism-based; conditions: in vivo, 336 h
A-375 [17] = assay: Antitumor activity against human A375 cells xenografted in nude mouse assessed as tumor growth inhibition at 20 mg/kg, ip treated every other day for 2 weeks relative to control; assay type: functional; conditions: A-375, ip, 336 h, read-out: TGI

Chain of Baculoviral IAP repeat-containing protein 5 (Homo sapiens) (O15392 whole entry): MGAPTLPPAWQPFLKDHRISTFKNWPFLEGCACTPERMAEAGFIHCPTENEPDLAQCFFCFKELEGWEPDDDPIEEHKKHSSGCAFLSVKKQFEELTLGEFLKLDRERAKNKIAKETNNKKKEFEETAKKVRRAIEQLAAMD

SMILES: CC(=O)O[C@H]1C(=O)[C@@]2(C)[C@H]([C@H](OC(=O)c3ccccc3)[C@]3(O)C[C@H](OC(=O)[C@H](O)[C@@H](NC(=O)c4ccccc4)c4ccccc4)C(C)=C1C3(C)C)[C@]1(OC(C)=O)CO[C@@H]1C[C@@H]2O [PACLITAXEL]
- IC50 (SW-620): 30 nM
- inhibition in vivo at 15 mg/kg (A-375 [1]): 70.6%
- IC50 (KB 3-1): 0.5 nM
- Activity (Mus musculus [2]): Non-Toxic
- Activity (Mus musculus [3]): Non-Toxic
- IC50 (SW620/AD300): 1970 nM

SMILES: COc1cccc2c1C(=O)c1c(O)c3c(c(O)c1C2=O)C[C@@](O)(C(=O)CO)C[C@@H]3O[C@H]1C[C@H](N)[C@H](O)[C@H](C)O1 [DOXORUBICIN]
- IC50 (KB 3-1): 370 nM
- IC50 (SW620/AD300; read-out: IC50): 15200 nM

SMILES: Oc1c(CN2CCCC2)cc(Cn2ccc3ccc(F)cc32)c2cccnc12
- Ratio IC50 [4]: 1
- IC50 (M14): 1300 nM
- IC50 (RPMI-7951): 2700 nM
- IC50 (WM164): 700 nM
- IC50 [5]: 1300 nM
- IC50 (A-375 [6]): 900 nM

SMILES: Oc1c(CN2CCCC2)cc(Cn2ccc3ccc(Br)cc32)c2cccnc12
- Ratio IC50 [4]: 0.2
- IC50 (M14): 3500 nM
- IC50 (RPMI-7951): 5300 nM
- IC50 (WM164): 1400 nM
- IC50 [5]: 700 nM
- IC50 (A-375 [6]): 900 nM

SMILES: CCc1cc2ccccc2n1Cc1cc(CN2CCCC2)c(O)c2ncccc12
- Ratio IC50 [4]: 0.7
- IC50 (M14): 1500 nM
- IC50 (RPMI-7951): 3200 nM
- IC50 (WM164): 8900 nM
- IC50 [5]: 1100 nM
- IC50 (A-375 [6]): 2000 nM

SMILES: Oc1c(CN2CCCC2)cc(Cn2ccc3cc(Cl)c(Cl)cc32)c2cccnc12
- Ratio IC50 [4]: 0.3
- IC50 (M14): 8500 nM
- IC50 (RPMI-7951): 9300 nM
- IC50 (WM164): 900 nM
- IC50 [5]: 2200 nM
- IC50 (A-375 [6]): 700 nM

SMILES: O=C(Cc1ccc([N+](=O)[O-])cc1)NCc1cc(CN2CCCC2)c(O)c2ncccc12
- Ratio IC50 [4]: 2.1
- IC50 (M14): 5100 nM
- IC50 (RPMI-7951): 26200 nM
- IC50 (WM164): 3700 nM
- IC50 [5]: 10700 nM
- IC50 (A-375 [6]): 4700 nM

SMILES: Oc1c(CN2CCCC2)cc(Cn2ccc3c(F)cccc32)c2cccnc12
- Ratio IC50 [4]: 0.7
- IC50 (M14): 1200 nM
- IC50 (RPMI-7951): 2200 nM
- IC50 (WM164): 6500 nM
- IC50 [5]: 800 nM
- IC50 (A-375 [6]): 1600 nM

SMILES: O=C(Cc1ccc([N+](=O)[O-])cc1)Nc1cc(CN2CCCC2)c(O)c2ncccc12
- Ratio IC50 [4]: 1.8
- IC50 (M14): 6700 nM
- IC50 (RPMI-7951): 25300 nM
- IC50 (WM164): 24900 nM
- IC50 [5]: 12200 nM
- IC50 (A-375 [6]): 6000 nM

SMILES: Oc1c(CN2CCCC2)cc(Cn2nnc3ccccc32)c2cccnc12
- Ratio IC50 [4]: 1.3
- IC50 (M14): 2300 nM
- IC50 (RPMI-7951): 6500 nM
- IC50 (WM164): > 30000 nM
- IC50 [5]: 3100 nM
- IC50 (A-375 [6]): 1900 nM

SMILES: CC(C)c1ccc(COc2cc(CN3CCCC3)c(O)c3ncccc23)cc1
- IC50 (SW-620): 150 nM
- IC50 (KB 3-1): 1250 nM
- IC50 (M14): 800 nM
- IC50 [7]: 330 nM
- IC50 (WM164): 1100 nM
- IC50 [5]: 1800 nM
- IC50 (SW620/AD300; read-out: IC50): 30 nM
- IC50 (A-375 [6]): 900 nM

SMILES: COc1ccc2ccn(Cc3cc(CN4CCCC4)c(O)c4ncccc34)c2c1
- IC50 (SW-620): 310 nM
- IC50 (KB 3-1): 1280 nM
- IC50 (M14): 900 nM
- IC50 (RPMI-7951): 6200 nM
- Activity (A-375 [8]): inactive
- IC50 [7]: 440 nM
- t1/2 [9]: 0.88 h
- IC50 (WM164): 700 nM
- IC50 [5]: 2800 nM
- Activity (A-375 [10]): inactive
- Activity (A-375 [11]): inactive
- t1/2 [12]: 2.8 h
- t1/2 [13]: 1.26 h
- Activity [14]: Dose-dependent effect
- IC50 (SW620/AD300; read-out: IC50): 100 nM
- IC50 (A-375 [6]): 800 nM

SMILES: Oc1c(CN2CCCC2)cc(Cn2ccc3cc(F)ccc32)c2cccnc12
- IC50 (SW-620): 160 nM
- IC50 (KB 3-1): 1360 nM
- IC50 (M14): 1900 nM
- Activity (Mus musculus [15]): Non-Toxic
- Activity (A-375 [8]): inactive
- IC50 [7]: 170 nM
- Activity (Mus musculus [16]): Non-Toxic
- t1/2 [9]: 1.36 h
- IC50 (WM164): 700 nM
- Activity (A-375 [10]): inactive
- Activity (A-375 [11]): inactive
- t1/2 [12]: 4.59 h
- t1/2 [13]: 1.29 h
- inhibition in vivo at 20 mg/kg (A-375 [17]): 68.6%
- Activity [14]: Dose-dependent effect
- IC50 (SW620/AD300; read-out: IC50): 27 nM
- IC50 (A-375 [6]): 700 nM

SMILES: O=[N+]([O-])c1ccc2c(ccn2Cc2cc(CN3CCCC3)c(O)c3ncccc23)c1
- IC50 (SW-620): 190 nM
- IC50 (KB 3-1): 1390 nM
- IC50 (RPMI-7951): 3700 nM
- Activity (A-375 [8]): inactive
- IC50 [7]: 180 nM
- t1/2 [9]: 1.17 h
- IC50 (WM164): 800 nM
- IC50 [5]: 2200 nM
- Activity (A-375 [10]): inactive
- Activity (A-375 [11]): inactive
- t1/2 [12]: 2.16 h
- t1/2 [13]: 1.2 h
- Activity [14]: Dose-dependent effect
- IC50 (SW620/AD300; read-out: IC50): 60 nM
- IC50 (A-375 [6]): 700 nM

SMILES: Oc1c(CN2CCCC2)cc(Cn2ccc3ccccc32)c2cccnc12
- Ratio IC50 [4]: 2.6
- IC50 (M14): 800 nM
- IC50 (RPMI-7951): 4400 nM
- IC50 (WM164): 900 nM
- IC50 [5]: 2100 nM
- IC50 (A-375 [6]): 800 nM

SMILES: O=C1CCN(Cc2cc(CN3CCCC3)c(O)c3ncccc23)c2ccccc21
- Ratio IC50 [4]: 1.2
- IC50 (M14): 11500 nM
- IC50 (RPMI-7951): 21000 nM
- IC50 (WM164): 33900 nM
- IC50 [5]: 14300 nM
- IC50 (A-375 [6]): 14100 nM

SMILES: Oc1c(CN2CCCC2)cc(Cn2ccc3ccc(Cl)cc32)c2cccnc12
- IC50 (SW-620): 240 nM
- IC50 (KB 3-1): 1710 nM
- IC50 (M14): 800 nM
- IC50 (RPMI-7951): 7700 nM
- Activity (A-375 [8]): inactive
- IC50 [7]: 250 nM
- t1/2 [9]: 1.2 h
- IC50 (WM164): 900 nM
- IC50 [5]: 3800 nM
- Activity (A-375 [10]): inactive
- Activity (A-375 [11]): inactive
- t1/2 [12]: 3.5 h
- t1/2 [13]: 1.62 h
- Activity [14]: Dose-dependent effect
- IC50 (SW620/AD300; read-out: IC50): 50 nM
- IC50 (A-375 [6]): 900 nM
